# Assay results as given in US5137811A, “Method for diagnosing periodontal diseases with a substrate specific for aminopeptidase activity of periodontopathic bacteria” (Sunstar Kabushiki Kaisha, priority 1986, dated 1992).
# Where a SMILES comes first, the peptide text is derived from it. The star is where a group is joined. βNA = c1ccc2cc(N*)ccc2c1; Bz = O=C(c1ccccc1)*
# Experiments:
# [1] = test system: periodontopathic bacteria specific aminopeptidase activity; test: Hydrolytic activity of gingival crevicular fluid specimens, OD525 (Experiment 6); assay type: biochemical
# Protocol: (§1) Substrate compounds for aminopeptidase enzyme having various color developing groups derived from β-naphthylamine were dissolved in 0.1M Tris-HCl buffer (pH 7.0) at the concentration of 0.2 mM to obtain substrate solutions.
# (§2) To the substrate solution (1.5 ml) was added the above cell suspension (0.3 ml) and reacted at 37° C. for 60 minutes. After completion of the reaction, a coloring reagent [prepared by dissolving diazonium salt of Garnet GBC in 1M acetate buffer (containing 10% Tween 20, pH: 4.2) at the concentration of 0.5 mg/ml] was added and, after 15 minutes, the absorption at 525 nm was determined with a spectrophotometer.
# Specimens of gingival crevicular fluid were collected with paper points from five subjects who were considered to be healthy from their clinical state, six subjects with gingivitis and six subjects with periodontitis. Each specimen was dispersed in Ringer's solution (1.5 ml), and the relative amount of spirochete to total bacteria: [formula] was determined with a phase contrast microscope. Further, the Ringer's solution (0.3 ml) was tested for hydrolytic activity using the substrate solution prepared in the same manner as described in Experiment 1. As substrates, there were used compounds of the formula [1], i.e., N-benzoylvalyl-glycyl-arginine-β-naphthylamide (BzVGR) and N-carbobenzoxy-valyl-glycyl-arginine-β-naphthylamide (CxVGR) were used.
# According to the same manner as described in Experiment 4, hydrolytic activity was tested by using the compounds of the formulas and [2], i.e., glycyl-proline-βnaphthylamide (GP), N-benzoyl-arginyl-glycyl-phenylalanylproline-β-naphthylamide (BzRGFP), N-carbobenzoxy-valylglycyl-arginine-β-naphthylamide (CxVGR) and N-benzoylglycyl-arginine-β-naphthylamide (BzGR) alone or in combination. Hydrolytic activity was determined by measuring absorption at 525 nm (OD525) and expressed as follows.
# [2] = test system: Actinomyces israelli; test: Hydrolytic activity of cell suspension, substrates alone or in combination (Experiment 3); assay type: cell-based; settings: two strains, Table 3
# Protocol: (§3) The strains of Treponema were anaerobically cultivated using TYGVS media at 37° C. for 7 days, while other bacterial strains were cultivated using brain heart infusion broth at 37° C. for 48 to 72 hours. Each culture was diluted to obtain a bacterial cell suspension, the absorption at 660 nm of which was 1.0.
# as §1, §2
# (§4) On the basis of the average amount of released β-naphthylamine in each strain, the hydrolytic activity was expressed as follows: […]
# (§5) According to the same manner as described in Experiment 1, periodontopathic bacteria specific aminopeptidase activity was tested by using four strains of Treponema denticola, five strains of B. gingivalis, four strains of Actinobacillus actinomycetemcomitans, two strains of Actinomyces israelli and three strains of Fusobacterium nucleatum. Abbreviations in Table 3 are the same as those in Tables 1 and 2. Hydrolytic activity "+++" means "40≤release amount<80 nmol/ml" and "++++" means "release amount≥80 nmol/ml".
# [3] = test system: Treponema denticola; test: as above; assay type: cell-based; settings: four strains, Table 3
# Protocol: as §3, §1, §2, §4, §5
# [4] = test system: B. gingivalis; test: as above; assay type: cell-based; settings: five strains, Table 3
# Protocol: as §3, §1, §2, §4, §5
# [5] = test system: Actinobacillus actinomycetemcomitans; test: as above; assay type: cell-based; settings: four strains, Table 3
# Protocol: as §3, §1, §2, §4, §5
# [6] = test system: Fusobacterium nucleatum; test: as above; assay type: cell-based; settings: three strains, Table 3
# Protocol: as §3, §1, §2, §4, §5
# [7] = test system: Actinomyces israelli; test: Hydrolytic activity of cell suspension on aminopeptidase substrates (Experiment 2); assay type: cell-based; settings: two strains, Table 2
# Summary of the method: (§6)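 Absorbance at 525 nm of β-naphthylamine coupled to Garnet GBC diazonium salt gave the readout, with activity scored on the average amount freed per strain. Suspensions at A660 1.0 were reacted with 0.2 mM substrates at pH 7.0, 37° C., for 60 minutes.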
# [8] = test system: B. corporis; test: as above; assay type: cell-based; settings: Table 2
# Summary of the method: as §6
# [9] = test system: Treponema denticola; test: as above; assay type: cell-based; settings: four strains, Table 2
# Summary of the method: as §6
# [10] = test system: B. gingivalis; test: as above; assay type: cell-based; settings: five strains, Table 2
# Summary of the method: as §6
# [11] = test system: B. melaninogenicus; test: as above; assay type: cell-based; settings: two strains, Table 2
# Summary of the method: as §6
# [12] = test system: Actinobacillus actinomycetemcomitans; test: as above; assay type: cell-based; settings: four strains, Table 2
# Summary of the method: as §6
# [13] = test system: Fusobacterium nucleatum; test: as above; assay type: cell-based; settings: three strains, Table 2
# Summary of the method: as §6
# [14] = test system: B. intermedius; test: as above; assay type: cell-based; settings: three strains, Table 2
# Summary of the method: as §6
# [15] = test system: B. denticola; test: as above; assay type: cell-based; settings: Table 2
# Summary of the method: as §6
# [16] = test system: periodontopathic bacteria specific aminopeptidase activity; test: Hydrolytic activity of saliva supernatant, substrates alone or in combination (Experiment 9); assay type: biochemical; settings: 37° C. for 4 hours, Table 9
# Protocol: A saliva mixture was collected from a group consisting of ten healthy subjects and centrifuged to obtain a supernatant. Likewise, centrifuged supernatants were obtained from a group of ten subjects with adult periodontitis and a group of four localized juvenile periodontitis. The supernatant was used as a specimen and its hydrolytic activity was determined according to the same manner as described in Experiment 4 except that the reaction was carried out at 37° C. for 4 hours. As the substrates, there were used N-carbobenzoxy-valyl-glycyl-arginine-p-nitrophenol (CxVGR-pNP), N-carbobenzoxy-valyl-glycylarginine-4-methoxy-2-naphthylamide (CxVGR-4NA) and N-carbobenzoxy-valyl-glycyl-arginine-β-naphthylamide (CxVGR-βNA). Color was developed by using lN sodium hydroxide for CxVGR-pNP and Fast Blue BB for CxVGR-4NA and CxVGR-βNA.
# According to the same manner as described in Experiment 7, hydrolytic activity was tested by using N-carbobenzoxy-valyl-glycyl-arginine-β-naphthylamide (CxVGR-βNA), N-benzoyl-arginyl-glycyl-phenylalanyl-proline-β-naphthylamide (BzRGFP-βNA), N-carbobenzoxy-valyl-glycylarginine-p-nitrophenol (CxVGR-pNP) and N-benzoyl-arginylglycyl-phenylalanyl-proline-p-nitrophenol (BzRGFP-pNP) alone or in combination as the substrates.
smiles,measurement,setting,value
"N=C(N)NCCC[C@H](NC(=O)c1ccccc1)C(=O)NCC(=O)N[C@@H](Cc1ccccc1)C(=O)N1CCC[C@H]1C(=O)Nc1ccc2ccccc2c1 [BzRGFP, N-benzoyl-arginyl-glycyl-phenylalanyl-proline-β-naphthylamide] (Bz-RGFP-βNA)","hydrolytic activity, absorption at 525 nm (OD525)",[1]; Gingivitis subject 1 (spirochete 7.3 %),+ (0.1≤OD525 <0.2)
same,"hydrolytic activity, absorption at 525 nm (OD525)",[1]; Gingivitis subject 2 (spirochete 16.7 %),+ (0.1≤OD525 <0.2)
same,"hydrolytic activity, absorption at 525 nm (OD525)",[1]; Gingivitis subject 3 (spirochete 20.5 %),++ (0.2≤OD525 <0.4)
same,"hydrolytic activity, absorption at 525 nm (OD525)",[1]; Gingivitis subject 4 (spirochete 6.8 %),- (OD525 <0.1)
same,"hydrolytic activity, absorption at 525 nm (OD525)",[1]; Gingivitis subject 5 (spirochete 7.3 %),- (OD525 <0.1)
same,"hydrolytic activity, absorption at 525 nm (OD525)",[1]; Gingivitis subject 6 (spirochete 14.4 %),+ (0.1≤OD525 <0.2)
same,"hydrolytic activity, absorption at 525 nm (OD525)",[1]; Healthy subject 1 (spirochete 0.1 %),- (OD525 <0.1)
same,"hydrolytic activity, absorption at 525 nm (OD525)",[1]; Healthy subject 2 (spirochete 2.5 %),+ (0.1≤OD525 <0.2)
same,"hydrolytic activity, absorption at 525 nm (OD525)",[1]; Healthy subject 3 (spirochete 1.1 %),- (OD525 <0.1)
same,"hydrolytic activity, absorption at 525 nm (OD525)",[1]; Healthy subject 4 (spirochete 0.6 %),- (OD525 <0.1)
same,"hydrolytic activity, absorption at 525 nm (OD525)",[1]; Healthy subject 5 (spirochete 1.3 %),- (OD525 <0.1)
same,"hydrolytic activity, absorption at 525 nm (OD525)",[1]; Periodontitis subject 1 (spirochete 45.2 %),+++ (0.4≤OD525 <0.8)
same,"hydrolytic activity, absorption at 525 nm (OD525)",[1]; Periodontitis subject 2 (spirochete 30.3 %),+++ (0.4≤OD525 <0.8)
same,"hydrolytic activity, absorption at 525 nm (OD525)",[1]; Periodontitis subject 3 (spirochete 34.6 %),+++ (0.4≤OD525 <0.8)
same,"hydrolytic activity, absorption at 525 nm (OD525)",[1]; Periodontitis subject 4 (spirochete 21.2 %),+++ (0.4≤OD525 <0.8)
same,"hydrolytic activity, absorption at 525 nm (OD525)",[1]; Periodontitis subject 5 (spirochete 40.3 %),+++ (0.4≤OD525 <0.8)
same,"hydrolytic activity, absorption at 525 nm (OD525)",[1]; Periodontitis subject 6 (spirochete 35.1 %),+++ (0.4≤OD525 <0.8)
same,hydrolytic activity (release amount),[2],- (release amount<5 nmol/ml)
same,hydrolytic activity (release amount),[3],++ (20 ≤release amount<40 nmol/ml)
same,hydrolytic activity (release amount),[4],++ (20 ≤release amount<40 nmol/ml)
same,hydrolytic activity (release amount),[5],- (release amount<5 nmol/ml)
same,hydrolytic activity (release amount),[6],- (release amount<5 nmol/ml)
same,hydrolytic activity (average amount of released β-naphthylamine),[7],- (release amount<5 nmol/ml)
same,hydrolytic activity (average amount of released β-naphthylamine),[8],++ (20 ≤release amount<40 nmol/ml)
same,hydrolytic activity (average amount of released β-naphthylamine),[9],++ (20 ≤release amount<40 nmol/ml)
same,hydrolytic activity (average amount of released β-naphthylamine),[10],++ (20 ≤release amount<40 nmol/ml)
same,hydrolytic activity (average amount of released β-naphthylamine),[11],+++ (release amount≥40 nmol/ml)
same,hydrolytic activity (average amount of released β-naphthylamine),[12],- (release amount<5 nmol/ml)
same,hydrolytic activity (average amount of released β-naphthylamine),[13],- (release amount<5 nmol/ml)
same,hydrolytic activity (average amount of released β-naphthylamine),[14],+++ (release amount≥40 nmol/ml)
same,hydrolytic activity (average amount of released β-naphthylamine),[15],+++ (release amount≥40 nmol/ml)
same,hydrolytic activity,[16]; Adult Periodontitis subjects,27.8 ± 7.4 nmol/mL
same,hydrolytic activity,[16]; Healthy subjects,13.2 ± 5.4 nmol/mL
same,hydrolytic activity,[16]; Localized juvenile periodontitis subjects,22.6 ± 5.3 nmol/mL
